# Laboratory results from US5204241A, “Glutathione-S-transferase mu as a measure of drug resistance” (Oxi-Gene Inc., priority 1990, dated 1993).
# Tested on: glutathione transferase (GST-tSBO, identical to GST-mu)
# Assay: Glutathione transferase activity of human liver cytosols (105,000 g supernatants) toward tauromustine and trans-stilbene oxide as substrates
# Type: in vitro ADME
# Method: Human liver biopsies from ? 3 individuals were homogenized in 5 vol. of 0.25 M sucrose, centrifuged at 10,000 g for 15 minutes and then the resulting supernatant was re-centrifuged at 105,000 g for one hour. The 105,000 g supernatants were analyzed for glutathione transferase activity using trans-stilbene oxide (tSBO) and tauromustine as substrates. Metabolism of these substrates to glutathione conjugates was monitored by radiometric procedures involving differential organic solvent extraction, see Gill, S., Ota, J. and Hammock, B. D. Anal. Biochem. 131: 273-282 (1983), and high pressure liquid chromatography (HPLC).
smiles,measurement,setting,value
CN(C)S(=O)(=O)CCNC(=O)N(CCCl)N=O [tauromustine],glutathione transferase activity toward tauromustine,human liver cytosols with GST-tSBO activity 0-10 nmo/min/mg protein (GST mu lacking),0-2 nmol/min/mg protein
same,glutathione transferase activity toward tauromustine (metabolism of tauromustine),"human liver cytosols with easily detectable GST-tSBO activity, 25-65 nmol/min/mg protein (GST mu present)",4-19 nmol/min/mg protein
same,extent of metabolism by human liver cytosols having GST mu activity versus cytosols lacking GST mu activity,"human liver cytosols, GST mu (+) vs (-)",metabolized to a much greater extent
